Laboratory results taken from ChEMBL document CHEMBL1201862, “PubChem BioAssay data set” (2004).
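How tested: cells in 96-well plates exposed to compound for 48 hours at five concentrations. GI50: concentration for 50% inhibition of growth.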 Active and inactive are the calls of the source. Cut-off read from the data, not from the text of the source: active = GI50 up to about 1.1 µM and inactive = higher.

Experiments:
Test in all cases: NCI-60 cell line screen, 48 h
TK-10 = tested on: TK-10
DLD-1 = tested on: DLD-1
HOP-92 = tested on: HOP-92
SF-539 = tested on: SF-539
LXFL 529 = tested on: LXFL 529
COLO 205 = tested on: COLO 205
SK-OV-3 = tested on: SK-OV-3
NCI-H522 = tested on: NCI-H522
SN12C = tested on: SN12C
SK-MEL-2 = tested on: SK-MEL-2
Malme-3M = tested on: Malme-3M
NCI-H226 = tested on: NCI-H226
UO-31 = tested on: UO-31
DMS-273 = tested on: DMS-273
IGROV-1 = tested on: IGROV-1
NCI-H23 = tested on: NCI-H23
786-0 = tested on: 786-0
A549 = tested on: A549
K562 = tested on: K562
M19-MEL = tested on: M19-MEL
HCC 2998 = tested on: HCC 2998
XF498 = tested on: XF498
SW-620 = tested on: SW-620
HOP-62 = tested on: HOP-62
SF-295 = tested on: SF-295
OVCAR-4 = tested on: OVCAR-4
MOLT-4 = tested on: MOLT-4
SNB-78 = tested on: SNB-78
HCT-15 = tested on: HCT-15
OVCAR-3 = tested on: OVCAR-3
HCT-116 = tested on: HCT-116
OVCAR-5 = tested on: OVCAR-5
CAKI-1 = tested on: CAKI-1
CCRF-CEM = tested on: CCRF-CEM
SNB-19 = tested on: SNB-19
M14 = tested on: M14
DMS-114 = tested on: DMS-114
SK-MEL-28 = tested on: SK-MEL-28
OVCAR-8 = tested on: OVCAR-8
EKVX = tested on: EKVX
SF-268 = tested on: SF-268
LOX IMVI = tested on: LOX IMVI
RPMI-8226 = tested on: RPMI-8226
HT-29 = tested on: HT-29
U-251 = tested on: U-251
ACHN = tested on: ACHN
UACC-62 = tested on: UACC-62
RXF 393 = tested on: RXF 393
SK-MEL-5 = tested on: SK-MEL-5
KM12 = tested on: KM12
NCI-H460 = tested on: NCI-H460
KM-20L2 = tested on: KM-20L2
A498 = tested on: A498
SNB-75 = tested on: SNB-75
UACC-257 = tested on: UACC-257
SR = tested on: SR
HL-60 = tested on: HL-60
HOP-18 = tested on: HOP-18

Measured: GI50

CC(=O)NC(CCCN)C(=O)NCc1ccccc1 (stereo not given)
> 100 µM: HCT-15
inactive: TK-10 > 100 µM | DLD-1 > 100 µM | HOP-92 > 100 µM | SF-539 > 100 µM | LXFL 529 > 100 µM | COLO 205 > 100 µM | SK-OV-3 > 100 µM | NCI-H522 > 100 µM | SN12C > 100 µM | SK-MEL-2 > 100 µM | Malme-3M > 100 µM | NCI-H226 > 100 µM | UO-31 > 100 µM | DMS-273 > 100 µM | IGROV-1 > 100 µM | NCI-H23 > 100 µM | 786-0 > 100 µM | A549 > 100 µM | K562 > 100 µM | M19-MEL > 100 µM | HCC 2998 > 100 µM | XF498 > 100 µM | SW-620 > 100 µM | HOP-62 > 100 µM | SF-295 > 100 µM | OVCAR-4 > 100 µM | MOLT-4 > 100 µM | SNB-78 > 100 µM | OVCAR-3 > 100 µM | HCT-116 > 100 µM | OVCAR-5 > 100 µM | CAKI-1 > 100 µM | CCRF-CEM > 100 µM | SNB-19 > 100 µM | M14 > 100 µM | DMS-114 > 100 µM | SK-MEL-28 > 100 µM | OVCAR-8 > 100 µM | EKVX > 100 µM | SF-268 > 100 µM | LOX IMVI > 100 µM | RPMI-8226 > 100 µM | HT-29 > 100 µM | U-251 > 100 µM | ACHN > 100 µM | UACC-62 > 100 µM | RXF 393 > 100 µM | SK-MEL-5 > 100 µM | KM12 > 100 µM | NCI-H460 > 100 µM | KM-20L2 > 100 µM | A498 > 100 µM | SNB-75 > 100 µM | UACC-257 > 100 µM

O=Cc1cc(O)c(O)c(O)c1-c1c(C=O)cc(O)c(O)c1O
> 100 µM: HCT-15
inactive: TK-10 > 100 µM | DLD-1 > 100 µM | SF-539 > 100 µM | LXFL 529 > 100 µM | COLO 205 > 100 µM | SK-OV-3 > 100 µM | NCI-H522 > 100 µM | SN12C > 100 µM | SK-MEL-2 > 100 µM | Malme-3M > 100 µM | NCI-H226 > 100 µM | UO-31 > 100 µM | DMS-273 > 100 µM | IGROV-1 > 100 µM | NCI-H23 > 100 µM | 786-0 > 100 µM | A549 > 100 µM | K562 67.6 µM | M19-MEL > 100 µM | HCC 2998 > 100 µM | SW-620 > 100 µM | SR 82.8 µM | HOP-62 > 100 µM | SF-295 > 100 µM | OVCAR-4 > 100 µM | MOLT-4 > 100 µM | SNB-78 > 100 µM | OVCAR-3 > 100 µM | HCT-116 > 100 µM | OVCAR-5 > 100 µM | CAKI-1 > 100 µM | CCRF-CEM 85.7 µM | SNB-19 > 100 µM | M14 > 100 µM | DMS-114 79.8 µM | SK-MEL-28 > 100 µM | OVCAR-8 > 100 µM | EKVX > 100 µM | HL-60 > 100 µM | SF-268 > 100 µM | LOX IMVI > 100 µM | RPMI-8226 64.3 µM | HT-29 > 100 µM | U-251 > 100 µM | ACHN > 100 µM | UACC-62 > 100 µM | SK-MEL-5 > 100 µM | KM12 > 100 µM | NCI-H460 > 100 µM | KM-20L2 > 100 µM | A498 > 100 µM | SNB-75 > 100 µM | HOP-18 > 100 µM | UACC-257 > 100 µM
